Measurements from ChEMBL document CHEMBL1201862, “PubChem BioAssay data set” (2004).
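Growth conditions: 96-well plates. Treatment: test compound, 48 hours, 5 concentrations. Analysis: linear interpolation between bracketing concentrations; unreached endpoints set to highest concentration. Abbreviation: GI50, concentration required for 50% inhibition of growth.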 The source made the active and inactive calls. No stated cut-off is given here; in the data, active = GI50 up to about 1.1 µM and inactive = higher.

Tests used:
Test in all cases: NCI-60 cell line screen, 48 h
A549 = tested on: A549
DMS-273 = tested on: DMS-273
EKVX = tested on: EKVX
HCT-116 = tested on: HCT-116
HT-29 = tested on: HT-29
IGROV-1 = tested on: IGROV-1
NCI-H226 = tested on: NCI-H226
NCI-H522 = tested on: NCI-H522
OVCAR-3 = tested on: OVCAR-3
RXF 393 = tested on: RXF 393
SF-295 = tested on: SF-295
SN12C = tested on: SN12C
TK-10 = tested on: TK-10
U-251 = tested on: U-251
UO-31 = tested on: UO-31
ACHN = tested on: ACHN

Measured: GI50

COC12OCCN(C)C1=CC(=O)C1=NNC(C)C12 (stereo not drawn)
inactive: A549 > 100 µM | DMS-273 > 100 µM | EKVX > 100 µM | HCT-116 > 100 µM | HT-29 > 100 µM | IGROV-1 > 100 µM | NCI-H226 > 100 µM | NCI-H522 > 100 µM | OVCAR-3 > 100 µM | RXF 393 > 100 µM | SF-295 > 100 µM | SN12C > 100 µM | TK-10 > 100 µM | U-251 > 100 µM | UO-31 > 100 µM

O=C(O)CCNCCCCNCCC(=O)O
inactive: A549 > 100 µM | ACHN > 100 µM | DMS-273 > 100 µM | EKVX > 100 µM | HCT-116 > 100 µM | HT-29 > 100 µM | IGROV-1 > 100 µM | NCI-H226 > 100 µM | NCI-H522 > 100 µM | OVCAR-3 > 100 µM | RXF 393 > 100 µM | SF-295 > 100 µM | SN12C > 100 µM | TK-10 > 100 µM | U-251 > 100 µM

Cc1c2ccncc2c(C)c2c1[nH]c1ccc(OC(C)(C)C)cc12
inactive: A549 3.15 µM | DMS-273 1.86 µM | EKVX 11.1 µM | HCT-116 1.67 µM | HT-29 2.29 µM | IGROV-1 4.7 µM | NCI-H226 3.17 µM | NCI-H522 2.44 µM | OVCAR-3 1.73 µM | SF-295 2.07 µM | TK-10 4.88 µM | U-251 2.82 µM | UO-31 1.91 µM

CCCCCCCCCCn1cccc1/C=C/c1ccc(/C=C/c2cccn2CCCCCCCCCC)cc1
inactive: A549 > 100 µM | ACHN > 100 µM | DMS-273 > 100 µM | EKVX > 100 µM | HCT-116 > 100 µM | HT-29 > 100 µM | IGROV-1 > 100 µM | NCI-H226 > 100 µM | NCI-H522 > 100 µM | OVCAR-3 > 100 µM | RXF 393 > 100 µM | SF-295 > 100 µM | SN12C > 100 µM | TK-10 > 100 µM | U-251 > 100 µM | UO-31 88.7 µM

O=C(O)c1cc(S(=O)(=O)N/N=C\c2c3ccccc3[n+]([O-])c3ccccc23)ccc1O
inactive: A549 22.7 µM | ACHN 18.6 µM | DMS-273 7.16 µM | EKVX 44.4 µM | HCT-116 7.55 µM | HT-29 19.5 µM | IGROV-1 22.1 µM | NCI-H226 26.7 µM | NCI-H522 8.3 µM | OVCAR-3 40.1 µM | SF-295 4.45 µM | SN12C 17.9 µM | TK-10 17.8 µM | U-251 23.2 µM | UO-31 17.7 µM

NC(CCCNCc1ccccc1)C(=O)O (stereo not drawn)
inactive: A549 > 100 µM | ACHN > 100 µM | DMS-273 > 100 µM | EKVX > 100 µM | HCT-116 > 100 µM | HT-29 > 100 µM | IGROV-1 > 100 µM | NCI-H226 > 100 µM | NCI-H522 > 100 µM | OVCAR-3 > 100 µM | SF-295 > 10 µM | SN12C > 100 µM | TK-10 > 100 µM | UO-31 > 100 µM

CCOP(=O)(OCC)C(C(=O)OC)C(=O)C(=O)Nc1ccc(Cl)cc1Cl (stereo not drawn)
inactive: A549 > 100 µM | ACHN > 100 µM | DMS-273 > 100 µM | EKVX > 100 µM | HCT-116 > 100 µM | HT-29 > 100 µM | IGROV-1 > 100 µM | NCI-H226 > 100 µM | NCI-H522 > 100 µM | OVCAR-3 > 100 µM | RXF 393 65.3 µM | SN12C > 100 µM | TK-10 > 100 µM | U-251 > 100 µM | UO-31 > 100 µM
